Target: T1, AHR (UniProt P35869)
T1 construct: IC50
T1 sequence (P35869 1-848): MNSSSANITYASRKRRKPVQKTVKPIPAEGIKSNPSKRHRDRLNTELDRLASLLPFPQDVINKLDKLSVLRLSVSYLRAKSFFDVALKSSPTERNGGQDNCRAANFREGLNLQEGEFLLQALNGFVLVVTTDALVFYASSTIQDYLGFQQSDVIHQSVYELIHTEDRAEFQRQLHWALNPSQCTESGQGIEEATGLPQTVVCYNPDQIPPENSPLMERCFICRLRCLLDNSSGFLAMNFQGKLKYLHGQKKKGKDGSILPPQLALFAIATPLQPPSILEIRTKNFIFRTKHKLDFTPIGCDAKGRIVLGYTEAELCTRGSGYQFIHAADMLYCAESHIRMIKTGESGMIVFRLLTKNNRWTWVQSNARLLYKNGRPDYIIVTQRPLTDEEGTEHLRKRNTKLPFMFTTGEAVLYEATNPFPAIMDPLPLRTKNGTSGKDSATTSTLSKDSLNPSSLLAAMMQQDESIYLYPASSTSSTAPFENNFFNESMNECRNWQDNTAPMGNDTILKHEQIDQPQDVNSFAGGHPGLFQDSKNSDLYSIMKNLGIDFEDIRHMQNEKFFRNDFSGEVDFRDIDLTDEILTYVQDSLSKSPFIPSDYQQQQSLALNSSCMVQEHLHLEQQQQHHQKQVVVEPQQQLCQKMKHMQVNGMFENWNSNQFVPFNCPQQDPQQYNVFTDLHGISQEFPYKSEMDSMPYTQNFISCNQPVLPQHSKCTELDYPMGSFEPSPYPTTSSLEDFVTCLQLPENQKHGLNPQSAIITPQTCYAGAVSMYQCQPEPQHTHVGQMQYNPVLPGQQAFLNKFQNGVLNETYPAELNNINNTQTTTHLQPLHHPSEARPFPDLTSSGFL
Assay: DRE-Luciferase Reporter Assay (Example 1A)
Type: cell-based, murine or human
Conditions: cell line and AHR activating ligand not specified
Procedure: AHR binds to Dioxin Responsive Elements (DRE) upstream of genes that it activates. One measure of AHR activity is activation of a reporter gene, such as luciferase, downstream of one or multiple DRE elements. Luciferase activity will reflect activation and inhibition of AHR in the cells expressing his reporter.
Murine Hepa1-6 or Hepa-1c1c7 or other murine cell line with a DRE-luciferase reporter either stably or transiently transfected were plated in media in plates (96-well, 384-well or other plates) and incubated overnight at 37° C. in a CO2 incubator. Likewise, human HepG2 or other human cell line with a DRE-luciferase reporter either stably or transiently transfected were plated in media in plates (96-well, 384-well or other plates) and incubated overnight at 37° C. in a CO2 incubator.
The next day, an AHR activating ligand, such as TCDD, kynurenine, ITE (2-(1H-indole-3-ylcarbonyl)-4-thiazolecarboxylic methyl ester), VAF347, BNF (beta-naphthoflavone), FICZ (6-formylindolo(3,2-b) carbazole or other AHR ligands, was added with or without AHR antagonist.
Cells were incubated for 4, 15 or 24 hours or another time point and then lysed for determination of luciferase activity as a read-out of the AHR activation or inhibition. Luciferase was measured with a commercial kit such as the Promega Luciferase kit or any kit or reagents that provide the luciferin substrate for measuring luciferase activity. The level of luciferase with only activating ligand added was the maximum signal while the luciferase with no ligand was the minimum signal. IC50 values were determined as the concentration which inhibits half of the luciferase activity.

- IC50: < 500 nM
Compound: CC(C)c1cnn2c(NCCc3c[nH]c4ccccc34)cc(-c3cncc(F)c3)nc12 [I-2, N-(2-(1H-indol-3-yl)ethyl)-5-(5-fluoropyridin-3-yl)-3-isopropylpyrazolo[1,5-a]pyrimidin-7-amine]

From patent publication US11358969B2, “Indole AHR inhibitors and uses thereof” (Ikena Oncology, Inc., priority 2017, dated 2022)
